{"source": "patent EP4417602A1", "about": "“SUBSTITUTED PYRAZOLE CARBOXAMIDES, SALTS THEREOF AND THEIR USE AS HERBICIDALLY ACTIVE SUBSTANCES” (Bayer AG, priority 2023, dated 2024)", "key": {"ECHCG": {"system": "ECHCG", "test": "E. Herbicidal post-emergence action, weed and crop plants (Tables E)", "assay_type": "in vivo, Echinochloa crus-galli", "details": "application rate 320 g/ha, visual assessment after ca. 3 weeks", "description": "(§1) Seeds of mono- and dicotyledonous weed plants and crop plants were sown, in plastic or organic planting pots, in sandy loam, covered with soil and grown in a greenhouse under controlled growth conditions. 2 to 3 weeks after sowing, the test plants were sprayed in the single-leaf stage. The compounds according to the invention, formulated in form of wettable powders (WP) or as emulsifiable concentrates (EC), were sprayed onto the green plant parts as aqueous suspension or emulsion, with the addition of 0.5% of an additive, at an application rate of 6001 of water/ha (converted). The test plants were placed in the greenhouse for ca. 3 weeks under optimum growth conditions, and then the effect of the preparations was assessed visually in comparison with untreated controls (herbicidal effect in percent (%): 100% effect = plants have died off, 0% effect = as control plants). Tables E1 to E7 below show the effects of selected compounds of the general formula (I) according to table 1 on various harmful plants and an application rate corresponding to 320 g/ha or below obtained by the experimental procedure mentioned above. Table E1: post-emergence activity at 320g/ha against ALOMY in %"}, "AVEFA": {"system": "AVEFA", "test": "C. Herbicidal pre-emergence action, weed and crop plants (Tables C)", "assay_type": "in vivo, Avena fatua", "details": "application rate 320 g/ha; Table C4", "description": "(§2) Seeds of mono- and dicotyledonous weed plants and crop plants were sown, in plastic or organic planting pots, in sandy loam and covered with soil. The compounds according to the invention, formulated in the form of wettable powders (WP) or as emulsifiable concentrates (EC), were applied to the surface of the covering soil as aqueous suspension or emulsion, with the addition of 0.5% of an additive, at an application rate of 6001 of water/ha (converted). Following treatment, the pots were placed in a greenhouse and kept under optimum growth conditions for the test plants. The visual grading of the damage to the test plants was carried out after ca. 3 weeks in comparison to untreated controls (herbicidal effect in percent (%): 100% effect = plants have died off, 0% effect = as control plants). Tables C1 to C12 below show the effects of selected compounds of the general formula (I) according to table 1 on various harmful plants and an application rate corresponding to 320 g/ha or below obtained by the experimental procedure mentioned above. Table C1: pre-emergence activity at 320g/ha against KCHSC in %"}, "ABUTH": {"system": "ABUTH", "test": "B. Herbicidal post-emergence action on harmful plants (Tables B)", "assay_type": "in vivo, Abutilon theophrasti", "in_short": "(§3)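 Activity was scored visually as % damage (100% = dead, 0% = like untreated) about 3 weeks after treatment. Plants at the one-leaf stage, 2-3 weeks old, were sprayed with WP/EC formulations plus 0.5% additive (600 L/ha water, up to 1280 g/ha). Plants were grown in sandy loam in a greenhouse.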"}, "ALOMY": {"system": "ALOMY", "test": "E. Herbicidal post-emergence action, weed and crop plants (Tables E)", "assay_type": "in vivo, Alopecurus myosuroides", "details": "application rate 320 g/ha, visual assessment after ca. 3 weeks", "description": "as §1"}, "ORYZA": {"system": "ORYZA", "test": "D. Pre-emergence effects on crop plants (Tables D)", "assay_type": "in vivo, Oryza sativa", "details": "crop plant", "description": "Seeds of mono- and dicotyledonous weed plants and crop plants were sown, in plastic or organic planting pots, in sandy loam and covered with soil. The compounds according to the invention, formulated in the form of wettable powders (WP) or as emulsifiable concentrates (EC), were applied to the surface of the covering soil as aqueous suspension or emulsion, with the addition of 0.5% of an additive, at an application rate of 6001 of water/ha (converted).\nFollowing treatment, the pots were placed in a greenhouse and kept under optimum growth conditions for the test plants. The visual grading of the damage to the test plants was carried out after ca. 3 weeks in comparison to untreated controls (herbicidal effect in percent (%): 100% effect = plants have died off, 0% effect = as control plants).\nTables D1 to D5 below show the effects of various compounds of the general formula (I) according to Table 1 on various crop plants and an application rate corresponding to 320 g/ha or below obtained by the experimental procedure mentioned above in Biological Examples, Section C. Table D1a: pre-emergence activity at 320g/ha against ZEAMX in %"}, "VERPE [1]": {"system": "VERPE", "test": "A. Herbicidal pre-emergence action on harmful plants (Tables A)", "assay_type": "in vivo, Veronica persica", "details": "application rate 1280 g/ha; Table A11", "in_short": "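Greenhouse pre-emergence test: compound applied to the soil surface at 1280 g/ha or below, and herbicidal effect rated visually at ca. 3 weeks on a 0–100% scale against untreated plants.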"}, "LOLRI": {"system": "LOLRI", "test": "B. Herbicidal post-emergence action on harmful plants (Tables B)", "assay_type": "in vivo, Lolium rigidum", "details": "application rate 1280 g/ha; Table B3", "method": "Seeds of mono- and dicotyledonous weed plants were placed in plastic pots in sandy loam soil (doubly sown with in each case one species of mono- or dicotyledonous weed plants per pot), covered with soil and cultivated in a greenhouse under controlled growth conditions. 2 to 3 weeks after sowing, the test plants were treated at the one-leaf stage. The compounds of the invention, formulated in the form of wettable powders (WP) or as emulsion concentrates (EC), were applied onto the green parts of the plants as aqueous suspension or emulsion with addition of 0.5% additive at a water application rate of 600 liters per hectare (converted). After the test plants had been kept in the greenhouse under optimum growth conditions for about 3 weeks, the activity of the preparations was rated visually in comparison to untreated controls. For example, 100% activity = the plants have died, 0% activity = like control plants. Tables B1 to B12, below, show the effects of selected compounds of the general formula (I) according to table 1 on various harmful plants and an application rate corresponding to 1280 g/ha or below obtained by the experimental procedure mentioned above. Table B1a: post-emergence activity at 1280g/ha against ABUTH in %"}, "STEME": {"system": "STEME", "test": "B. Herbicidal post-emergence action on harmful plants (Tables B)", "assay_type": "in vivo, Stellaria media", "details": "application rate 1280 g/ha; Table B6", "in_short": "as §3"}, "SETVI": {"system": "SETVI", "test": "B. Herbicidal post-emergence action on harmful plants (Tables B)", "assay_type": "in vivo, Setaria viridis", "details": "application rate 1280 g/ha; Table B5", "in_short": "as §3"}, "VERPE [2]": {"system": "VERPE", "test": "B. Herbicidal post-emergence action on harmful plants (Tables B)", "assay_type": "in vivo, Veronica persica", "in_short": "as §3"}, "AMARE": {"system": "AMARE", "test": "C. Herbicidal pre-emergence action, weed and crop plants (Tables C)", "assay_type": "in vivo, Amaranthus retroflexus", "details": "application rate 320 g/ha; Table C3", "description": "as §2"}, "[3]": {"details": "application rate 320 g/ha, treated at the one-leaf stage, rated visually after about 3 weeks vs untreated controls, 100% = the plants have died, 0% = like control plants"}, "[4]": {"details": "application rate 1280 g/ha, Table B1a"}, "[5]": {"details": "application rate 80 g/ha, Table D3b"}, "[6]": {"details": "application rate 320 g/ha, Table D3a"}, "[7]": {"details": "application rate 1280 g/ha, Table B11a"}}, "data": [{"smiles": "COCc1nn(C)cc1C(=O)N1CCCC1Cc1ccccc1F", "note": "(racemic) [Example I-002]", "values": [{"measurement": "post-emergence activity against ECHCG in %", "setting": "ECHCG", "value": 80, "unit": "%"}, {"measurement": "pre-emergence activity against AVEFA", "setting": "AVEFA", "value": 80, "unit": "%"}]}, {"smiles": "Cn1cc(C(=O)N2CCCC2Cc2ccccc2F)c(COc2ccccc2)n1", "note": "(racemic) [Example I-006]", "values": [{"measurement": "post-emergence activity against ABUTH", "setting": "ABUTH; [3]", "value": 90, "unit": "%"}, {"measurement": "post-emergence activity against ABUTH", "setting": "ABUTH; [4]", "value": 90, "unit": "%"}, {"measurement": "post-emergence activity against ALOMY in %", "setting": "ALOMY", "value": 90, "unit": "%"}, {"measurement": "pre-emergence activity against ORYZA", "setting": "ORYZA; [5]", "value": 0, "unit": "%"}, {"measurement": "pre-emergence activity against ORYZA", "setting": "ORYZA; [6]", "value": 0, "unit": "%"}, {"measurement": "pre-emergence activity against VERPE", "setting": "VERPE [1]", "value": 100, "unit": "%"}]}, {"smiles": "Cn1cc(C(=O)N2CCCC2Cc2ccc(F)cc2F)c(COc2ccccc2)n1", "note": "(racemic) [Example I-008]", "values": [{"measurement": "pre-emergence activity against ORYZA", "setting": "ORYZA; [5]", "value": 0, "unit": "%"}, {"measurement": "pre-emergence activity against ORYZA", "setting": "ORYZA; [6]", "value": 0, "unit": "%"}]}, {"smiles": "C=C(c1ccccc1F)C1CCCN1C(=O)c1cn(C)nc1COC", "note": "(racemic) [Example I-023]", "values": [{"measurement": "post-emergence activity against LOLRI", "setting": "LOLRI", "value": 90, "unit": "%"}]}, {"smiles": "CNC(=O)n1cc(C(=O)N2CCCC2Cc2ccccc2F)c(COC)n1", "note": "(racemic) [Example I-051]", "values": [{"measurement": "post-emergence activity against ALOMY in %", "setting": "ALOMY", "value": 80, "unit": "%"}, {"measurement": "post-emergence activity against STEME", "setting": "STEME", "value": 90, "unit": "%"}]}, {"smiles": "COCc1c(C(=O)N2CCCC2Cc2ccccc2Cl)cnn1C", "note": "(racemic) [Example I-170]", "values": [{"measurement": "post-emergence activity against ALOMY in %", "setting": "ALOMY", "value": 80, "unit": "%"}, {"measurement": "post-emergence activity against ECHCG in %", "setting": "ECHCG", "value": 80, "unit": "%"}, {"measurement": "post-emergence activity against SETVI", "setting": "SETVI", "value": 90, "unit": "%"}, {"measurement": "post-emergence activity against VERPE", "setting": "VERPE [2]; [7]", "value": 90, "unit": "%"}, {"measurement": "post-emergence activity against LOLRI", "setting": "LOLRI", "value": 90, "unit": "%"}]}, {"smiles": "COCc1nn(C)cc1C(=O)N1CCCC1Cc1ccccc1F", "note": "(single isomer, unassigned) [Example I-003]", "values": [{"measurement": "post-emergence activity against ABUTH", "setting": "ABUTH; [3]", "value": 90, "unit": "%"}, {"measurement": "post-emergence activity against ABUTH", "setting": "ABUTH; [4]", "value": 90, "unit": "%"}, {"measurement": "post-emergence activity against ALOMY in %", "setting": "ALOMY", "value": 80, "unit": "%"}, {"measurement": "pre-emergence activity against AMARE", "setting": "AMARE", "value": 90, "unit": "%"}, {"measurement": "post-emergence activity against ECHCG in %", "setting": "ECHCG", "value": 80, "unit": "%"}, {"measurement": "pre-emergence activity against AVEFA", "setting": "AVEFA", "value": 90, "unit": "%"}, {"measurement": "post-emergence activity against VERPE", "setting": "VERPE [2]; application rate 80 g/ha, Table B11c", "value": 90, "unit": "%"}, {"measurement": "post-emergence activity against VERPE", "setting": "VERPE [2]; application rate 320 g/ha, Table B11b", "value": 90, "unit": "%"}, {"measurement": "post-emergence activity against VERPE", "setting": "VERPE [2]; [7]", "value": 90, "unit": "%"}]}, {"smiles": "COCc1nn(C)cc1C(=O)N1CCCC1C(O)c1ccccc1F", "note": "(single isomer, unassigned) [Example I-053]", "values": [{"measurement": "pre-emergence activity against AMARE", "setting": "AMARE", "value": 90, "unit": "%"}, {"measurement": "post-emergence activity against SETVI", "setting": "SETVI", "value": 90, "unit": "%"}]}, {"smiles": "COCc1c(C(=O)N2CCCC2Cc2ccccc2F)cnn1C", "note": "(single isomer, unassigned) [Example I-157]", "values": [{"measurement": "post-emergence activity against ALOMY in %", "setting": "ALOMY", "value": 80, "unit": "%"}, {"measurement": "post-emergence activity against STEME", "setting": "STEME", "value": 100, "unit": "%"}, {"measurement": "pre-emergence activity against VERPE", "setting": "VERPE [1]", "value": 90, "unit": "%"}]}]}
